tested on: TPA-induced ear edema; assay: not given; type: in vivo, ICR-strain male mouse; settings: topical, 0.3 mg/20 μL/ear × 2; 6 hours after TPA
Method: This test was carried out referring to the method of Carlson, R. P. et al. (Agents and Actions, 17(2): 197-204 (1985).) and the method of Chang, J. (European Journal of Pharmacology, 142: 197-205 (1987).). […] 6 hours later, the thickness of each ear at the particular part was respectively measured three times using a digimatic micrometer to calculate the mean value. Ear edema was determined by subtracting the mean thickness of the left ear as without treatment from that of the right ear as TPA-applied. […] As the positive control, 100 mg/kg of Hydrocortisone (Sigma Chemical Co., H 4001) suspension was applied to the mouse similarly as for the compound of the present invention.

For `CC(=O)OCC(=O)[C@@]1(O)[C@H](C)C[C@H]2[C@@H]3CCC4=CC(=O)C=C[C@]4(C)[C@@]3(F)[C@@H](O)C[C@@]21C` [DEX-Ac, Dexamathasone-21-acetate, reference compound], the “Ear Edema Inhibition (%)” value was 49%.

same assay, conditions: topical, 1 mg/20 μL/ear × 2; 6 hours after TPA

Compared with `CC(C)N=C1OC(c2ccc(Cl)cc2)C(C)N1C(=O)NC1CCCCC1` (stereo not drawn) [Compound 1-28], `Cc1ccc(N2C(=NC(=O)NC3CCCCC3)SC(c3ccc(Cl)cc3)C2C)cc1` (stereo not drawn) [Compound 1-90] is higher in “Ear Edema Inhibition (%)” value: 36% for the first, 41% for the second.

With `CC(=O)OCC(=O)[C@@]1(O)[C@H](C)C[C@H]2[C@@H]3CCC4=CC(=O)C=C[C@]4(C)[C@@]3(F)[C@@H](O)C[C@@]21C` [DEX-Ac, Dexamathasone-21-acetate, reference compound] the “Ear Edema Inhibition (%)” value was 80%.

same assay, conditions: topical, 1 mg/40 μL/ear × 2; 6 hours after TPA

Compared with `C[C@@H]1[C@@H](c2ccc(Cl)cc2)SC(=O)N1C(=O)NC1CCCCO1` (single isomer, unassigned) [Compound 2-246], `Cc1ccc(C2SC(=NC(=S)NC3CCCCC3)NC2C)cc1` (stereo not drawn) [Compound 1-112] is lower in “Ear Edema Inhibition (%)” value: 74% for the first, 69% for the second.

With `Cc1ccc(C2OC(=NC(=O)c3c(C)cccc3Cl)NC2C)cc1` (stereo not drawn) [Compound 1-73] the “Ear Edema Inhibition (%)” value was 86%.

target: T1, IV-cPLA(2) (Homo sapiens, UniProt P47712); assay: PLA(2) activity, hydrolysis of bis-BODIPY FL C11-PC in activated U937 cells; type: cell-based; settings: 0.01 μM
T1 sequence (P47712 1-749): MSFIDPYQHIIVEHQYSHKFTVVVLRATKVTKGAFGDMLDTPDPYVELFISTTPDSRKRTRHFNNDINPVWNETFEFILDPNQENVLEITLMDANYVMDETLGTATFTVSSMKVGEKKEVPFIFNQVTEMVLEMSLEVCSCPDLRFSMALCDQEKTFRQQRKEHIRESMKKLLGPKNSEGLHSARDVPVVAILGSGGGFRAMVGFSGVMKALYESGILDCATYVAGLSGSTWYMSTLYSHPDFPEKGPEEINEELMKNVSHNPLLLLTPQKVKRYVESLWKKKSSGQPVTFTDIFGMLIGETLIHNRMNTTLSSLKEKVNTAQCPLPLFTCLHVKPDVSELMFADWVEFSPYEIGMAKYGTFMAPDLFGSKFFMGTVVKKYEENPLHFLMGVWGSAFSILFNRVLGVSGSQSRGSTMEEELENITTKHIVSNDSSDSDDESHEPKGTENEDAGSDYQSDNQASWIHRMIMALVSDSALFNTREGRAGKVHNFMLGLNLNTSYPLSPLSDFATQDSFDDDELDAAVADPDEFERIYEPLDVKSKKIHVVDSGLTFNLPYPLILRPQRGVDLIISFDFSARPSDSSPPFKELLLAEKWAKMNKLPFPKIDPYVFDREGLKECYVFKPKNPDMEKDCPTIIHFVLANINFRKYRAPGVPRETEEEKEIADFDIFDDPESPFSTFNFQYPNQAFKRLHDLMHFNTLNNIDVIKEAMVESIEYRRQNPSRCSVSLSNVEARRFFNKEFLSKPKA
Method: The PLA(2) activity was measured by quantitatively analyzing the fluorescent product of hydrolysis from 1,2-bis-(4,4-difluoro-5,7-dimethyl-4-bora-3a,4a-diaza-s-indecene-3-undecanoyl)-sn-glycero-3-phosphocholine (hereinafter referred to bis-BODIPY®FL C11—PC, Molecular Probes, Inc., B-7701) using activated U937 cells (human monoblastic lymphoma cell line) by inflammatory stimulus (Meshulam, T. et al., The journal of Biological Chemistry 267 (30): 21465-21470 (1992); and Solito, E. et al., British Journal of Pharmacology 124: 1675-1683 (1998).). The substrate bis-BODIPY®FL C11—PC is incorporated into cellular membranes, the proximity of the BODIPY FL fluorophores on adjacent phospholipid acyl chains causes fluorescence self-quenching. Separation of the fluorophores upon hydrolytic cleavage of one of the acyl chains by PLA(1) or the PLA(2) results in increased fluorescence. In the activated U937 by inflammatory stimulus, it is shown that this substrate should be cleaved enzymatically by IV-cPLA(2) from the feature of its behaviors including sensitivity profiles against the inhibitors.
The human cell line U937 was purchased from Dai-Nippon Pharmaceuticals Co., Ltd. The cells were maintained by transferring every 3-4 days into RPMI 1640 medium (Sigma Chemical Co., R6504) supplemented with heat-inactivated 10% fetal bovine serum (Fetal Bovine Serum, Sigma Chemical Co., F 4135) in a 5% CO2 humidified atmosphere at 37° C. The cells were transferred into the culture medium described above, containing 1.2% (v/v) dimethylsulfoxide (hereinafter referred to as […], Nacalai tesque Co., Ltd., D 134-45), and pre-cultured for 96 to 120 hours so as to differentiate into the macrophage-like cells to be provided for the assay. The macrophage-like cells were collected and washed by centrifugation with the Assay medium (Dulbecco's phosphate buffered saline (hereinafter referred to as PBS)-2.2 mM glucose-2.5 μm albumin). Then, Phorbol 12-Myristate 13-Acetate (hereinafter referred to as TPA, Sigma Chemical Co., P 8139) was added to the Assay medium to be 1×10^−8M as the final concentration. Then, the macrophage-like cells were further cultured for an hour to be activated (Rzigalinski, B. A. & Rosenthal, M. D., Biochimica et Biophysica Acta 1223: 219-225 (1994); and Gonchar, M. V. et al., Biochemical and Biophysical Research Communication, 249: 829-832 (1998).).
For preparing substrate liposome suspension, bis-BODIPY®FL C11—PC was combined with phosphatidylcholine (Sigma Chemical Co., P 7769) at 1:9 molar ratio in chloroform, and dried under nitrogen flow. The dried mixture was suspended with the Assay medium at 100 μg/mL, voltexed and sonicated for an hour on ice under dark condition.
The test compound was dissolved with DMSO at 30 mM, and the solution diluted with either DMSO or the Assay medium before addition into the reaction mixture. The DMSO concentration in the reaction mixture was controlled so as to be no more than 0.1%. The 30-fold concentration of test compound solution was put into each well of MICRPTEST™ Tissue Culture Plate, 96 Well (Falcon, 3072) at a rate of 2.5 μL/well. To the respective well was added 25 μL/well of the activated U937 cell suspension ([…]), and the cells were pre-cultured for 120 min. at 37° C. in a 5% CO2 atmosphere incubator. 47.5 μL/well of the substrate liposome suspension with 1.5×10^−6M A23187 (Sigma Chemical Co., C 7522) was added into each well to prepare 75 μL/well of the total reaction mixture, followed by culture for 30 min. under the same conditions with shielding against light. 100 μL/well of 0.1% GEDTA (Dojindo Laboratories Co. Ltd., 348-01311) methanol solution was added into each well and mixed to stop the reaction. […]

Going from `C[C@@H]1[C@@H](c2ccc(Cl)cc2)SC(=O)N1C(=O)NC1CCCCO1` (single isomer, unassigned) [Compound 2-246] to `CC1C(c2cnc3ccccc3c2)OC(=O)N1C(=O)NC1CCCCO1` (stereo not drawn) [Compound 2-151], the “Inhibition (%)” value falls from 78% to 64%.

`O=C(NC1CCCCO1)N1CC(c2ccc(-c3ccccc3)cc2)OC1=O` (stereo not drawn) [Compound 2-78] was tested, and the “Inhibition (%)” value was 100%.

same assay, conditions: 0.1 μM

Compared with `CC1C(c2ccc(Cl)cc2)SC(=NC#N)N1Cc1ccc(Cl)nc1` (stereo not drawn) [Compound 1-5], `CC1C(c2ccc(Cl)cc2)SC(=O)N1C(=O)NN(C)C` (stereo not drawn) [Compound 2-22] is higher in “Inhibition (%)” value: 66% for the first, 100% for the second.

Going from `CC1NC(=N[N+](=O)[O-])SC1c1ccc(Cl)cc1` (stereo not drawn) [Compound 1-11] to `CCOC(=O)CN=C1NC(C)C(c2ccc(C)cc2)S1` (stereo not drawn) [Compound 1-35], the “Inhibition (%)” value falls from 88% to 57%.

First: CN=C1OC(c2ccc(C)cc2)C(C)N1C(=O)Nc1ccc(Cl)cc1 (stereo not drawn) [Compound 1-25]
Second: CC1C(c2ccc(-c3ccccc3)cc2)OC(=O)N1C(=O)Nc1ccc(Cl)cc1 (stereo not drawn) [Compound 2-186]
The “Inhibition (%)” value of the first is higher: 100% for the first, 75% for the second.

Going from `CC(C)N=C1OC(c2ccc(Cl)cc2)C(C)N1C(=O)NC1CCCCC1` (stereo not drawn) [Compound 1-28] to `Cc1ccc(C2OC(=O)N(C(=S)NC3CCCCC3)C2C)cc1C` (stereo not drawn) [Compound 2-182], the “Inhibition (%)” value falls from 93% to 91%.

Going from `CC(=O)N=C1SC(c2ccccc2)C(C)N1CC(OC(C)=O)c1ccccc1` (stereo not drawn) [Compound 1-42] to `CCONC(=O)N1C(=O)OC(c2ccc(Oc3ccccc3)cc2)C1C` (stereo not drawn) [Compound 2-116], the “Inhibition (%)” value falls from 94% to 54%.

Compared with `C=CC(=O)N=C1SC(c2ccc(C)cc2)C(C)N1C(=O)NC1CCCCC1` (stereo not drawn) [Compound 1-49], `CC1C(c2cccnc2)SC(=O)N1C(=O)NC1CCCCC1` (stereo not drawn) [Compound 2-145] is lower in “Inhibition (%)” value: 91% for the first, 72% for the second.

Compared with `Cc1ccc(C2OC(=NC(=O)c3c(C)cccc3Cl)NC2C)cc1` (stereo not drawn) [Compound 1-73], `Cc1ccc(C2OC(=O)N(C(=O)NC(=O)c3c(F)cccc3F)C2C)cc1` (stereo not drawn) [Compound 2-79] is lower in “Inhibition (%)” value: 68% for the first, 55% for the second.

Going from `CC1C(c2ccc(Cl)cc2)SC(=O)N1C(=S)NCCN1CCOCC1` (stereo not drawn) [Compound 2-37] to `Cc1ccc(C2OC(=O)N(C(=O)NC3CCOCC3)C2C)cc1` (stereo not drawn) [Compound 2-159], the “Inhibition (%)” value rises from 63% to 95%.

Going from `Cc1ccc(C2OC(=O)N(C(=O)NCCCl)C2C)cc1` (stereo not drawn) [Compound 2-48] to `COS(=O)(=O)NC(=O)N1C(=O)OC(c2ccc(C)cc2)C1C` (stereo not drawn) [Compound 2-56], the “Inhibition (%)” value rises from 77% to 92%.

Going from `CC1C(c2ccc(-c3ccccc3)cc2)OC(=O)N1C(=S)NC1CCCCC1` (stereo not drawn) [Compound 2-75] to `CC1C(c2ccccc2)OC(=O)N1C(=S)NC1CCCCC1` (stereo not drawn) [Compound 2-180], the “Inhibition (%)” value rises from 83% to 100%.

Compared with `CC1C(c2ccc3ccccc3c2)OC(=O)N1C(=O)NC1CCCCO1` (stereo not drawn) [Compound 2-115], `CC1C(c2ccccc2)OC(=O)N1C(=O)NC1CCCCO1` (stereo not drawn) [Compound 2-155] is higher in “Inhibition (%)” value: 63% for the first, 95% for the second.

Going from `CC1C(c2ccc(Cc3ccccc3)cc2)OC(=O)N1C(=O)NC1CCCCO1` (stereo not drawn) [Compound 2-117] to `O=C(NC1CCCCO1)N1CC(c2ccc3ccccc3c2)OC1=O` (stereo not drawn) [Compound 2-130], the “Inhibition (%)” value falls from 82% to 68%.

First: CCN(C(C)C)S(=O)(=O)NC(=O)N1C(=O)OC(c2ccc3ccccc3c2)C1C (stereo not drawn) [Compound 2-126]
Second: CC1C(c2ccc(-c3ccccc3)cc2)OC(=O)N1C(=O)Nc1ccc(Cl)cc1 (stereo not drawn) [Compound 2-187]
The “Inhibition (%)” value of the first is lower: 72% for the first, 74% for the second.

With `Cc1ccc(C2OC(=O)N(C(=O)NC3CCSCC3)C2C)cc1` (stereo not drawn) [Compound 2-157] the “Inhibition (%)” value was 96%.

same assay, conditions: 1 μM

First: CCNC(=O)N1C(=NNc2ccccc2)SC(c2ccc(Cl)cc2)C1C (stereo not drawn) [Compound 1-77]
Second: CC1C(c2ccc(Cl)cc2)SC(=O)N1C(=O)NC(=O)c1ccccc1 (stereo not drawn) [Compound 2-38]
The “Inhibition (%)” value of the first is higher: 100% for the first, 87% for the second.

First: Cc1ccc(C2SC(=NC(=S)NC3CCCCC3)NC2C)cc1 (stereo not drawn) [Compound 1-112]
Second: CC1C(c2ccc(Cl)cc2)SC(=O)N1C(=O)NC1CCCCO1 (stereo not drawn) [Compound 2-201]
The “Inhibition (%)” value of the first is lower: 72% for the first, 94% for the second.

First: CC1C(c2ccc(Cl)cc2)SC(=O)N1C(=O)Nc1ccncc1 (stereo not drawn) [Compound 2-21]
Second: CC1C(c2cccc3ccccc23)OC(=O)N1C(=O)NC1CCCCO1 (stereo not drawn) [Compound 2-113]
The “Inhibition (%)” value of the first is higher: 100% for the first, 72% for the second.

Going from `COC1CCCC(NC(=O)N2C(=O)OC(c3ccc4ccccc4c3)C2C)O1` (stereo not drawn) [Compound 2-133] to `Cc1ccc(C2OC(=O)N(C(=O)NN3CCN(C)CC3)C2C)cc1` (stereo not drawn) [Compound 2-161], the “Inhibition (%)” value falls from 75% to 65%.
